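The compound was tested at five concentrations on cells cultured in 96-well plates, with a 48-hour exposure period. Here, GI50 denotes the concentration required for 50% inhibition of growth. TGI: concentration producing complete growth inhibition.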

Some test systems named below: SW-620 colon; OVCAR-4 ovarian; CCRF-CEM leukemia; HOP-62 NSCLC; SF-539 CNS; NCI-H460 lung; ACHN renal; RPMI-8226 leukemia; EKVX NSCLC; K-562 leukemia.
Experiment in all cases: inhibition of tumour cell growth, NCI panel, 48 h

With `COc1cc(-c2ccc3c(c2)NC(=O)/C3=C\c2ccc[nH]2)ccc1O`, the GI50 in the test on SW-620 colon is 0.0188 µM; in the test on OVCAR-4 ovarian, 2.58 µM; in the test on CCRF-CEM leukemia, 0.0176 µM; with HOP-62 NSCLC, 0.0563 µM; with SF-539 CNS it was 0.0156 µM; in the test with NCI-H460 lung, 0.0194 µM. Further, the GI50 is 0.0417 µM in the test on ACHN renal, 0.0228 µM in the test on RPMI-8226 leukemia, 0.144 µM in the test with EKVX NSCLC and under 0.0118 µM in the test on K-562 leukemia. The TGI was over 50 µM in the test with SW-620 colon; over 50 µM with OVCAR-4 ovarian; over 16.7 µM in the test on CCRF-CEM leukemia; over 50 µM in the test with HOP-62 NSCLC; 0.236 µM in the test with SF-539 CNS; over 50 µM in the test on NCI-H460 lung. Moreover, the TGI with ACHN renal is over 50 µM; in the test on RPMI-8226 leukemia it was over 16.2 µM; in the test on EKVX NSCLC it was over 50 µM; in the test on K-562 leukemia, over 50 µM.
As to `O=C(N/N=C/c1ccc(Cl)cc1)c1ccc(C(F)(F)F)nc1Nc1cccc(C(F)(F)F)c1`, the GI50 in the test on SW-620 colon was 1.45 µM; in the test on OVCAR-4 ovarian, 0.736 µM; with CCRF-CEM leukemia, 0.344 µM; in the test on HOP-62 NSCLC, 2.47 µM; in the test with SF-539 CNS, 2.11 µM; in the test on NCI-H460 lung, 1.66 µM. For the same compound, the GI50 was 2.73 µM in the test on ACHN renal, 1.53 µM in the test with RPMI-8226 leukemia, 1.97 µM in the test on EKVX NSCLC and 3.15 µM with K-562 leukemia. Also, the TGI in the test on SW-620 colon was determined as 10.4 µM; in the test with OVCAR-4 ovarian it was 15.2 µM; with CCRF-CEM leukemia, 3.62 µM; with HOP-62 NSCLC, 10.9 µM; with SF-539 CNS, 6.69 µM; with NCI-H460 lung, 6.6 µM. The TGI in the test on ACHN renal was 8.77 µM; in the test on EKVX NSCLC, 14.1 µM; in the test on K-562 leukemia, over 35.9 µM.
`CN1c2ccc(Cl)cc2C(=O)NC1c1ccc([N+](=O)[O-])s1` (centres undefined): the TGI in the test with SW-620 colon was over 100 µM; with OVCAR-4 ovarian, 71.5 µM; in the test on CCRF-CEM leukemia, over 100 µM; in the test on HOP-62 NSCLC, 59.6 µM; in the test with SF-539 CNS it was 37.5 µM; in the test on NCI-H460 lung it was 36.4 µM. The TGI with ACHN renal was 51.7 µM; with RPMI-8226 leukemia, 26.7 µM; in the test on EKVX NSCLC it was 57.8 µM; with K-562 leukemia it was 34.8 µM.
With `CC1(C)C(=O)N(CCCCCCN2C(=O)C(C)(C)c3ccccc32)c2ccccc21`, the TGI in the test on SW-620 colon is 30.3 µM; in the test with OVCAR-4 ovarian, over 100 µM; in the test on CCRF-CEM leukemia, 47.5 µM; in the test on HOP-62 NSCLC, over 100 µM; with SF-539 CNS it was over 100 µM; in the test with NCI-H460 lung, over 100 µM. Also, the TGI in the test on ACHN renal is 97 µM; with RPMI-8226 leukemia, 45.1 µM; with EKVX NSCLC, over 100 µM; with K-562 leukemia, 55.4 µM.
Take `NP(=O)(Oc1c2occc2cc2ccc(=O)oc12)N(CCCl)CCCl` (centres undefined): the TGI in the test with SW-620 colon, with OVCAR-4 ovarian, with CCRF-CEM leukemia, in the test on HOP-62 NSCLC, in the test on SF-539 CNS and with NCI-H460 lung was over 100 µM throughout. The TGI in the test with ACHN renal, in the test on RPMI-8226 leukemia, in the test with EKVX NSCLC and in the test with K-562 leukemia was over 100 µM in each case.
`CC(=O)CSCc1ccccn1`: the TGI with SW-620 colon was over 100 µM; in the test with OVCAR-4 ovarian it was over 100 µM; in the test on CCRF-CEM leukemia, 90.7 µM; in the test on HOP-62 NSCLC it was over 100 µM; in the test on SF-539 CNS, 67.9 µM; with NCI-H460 lung it was over 100 µM. For the same compound, the TGI with ACHN renal was over 100 µM; with RPMI-8226 leukemia it was 36.8 µM; with EKVX NSCLC, over 100 µM; in the test on K-562 leukemia it was 82.3 µM.
In the case of `N#C/C(=C1C=C(Br)/C(=N\O)C=C\1Cl)c1cccc2ccccc12`, the TGI came out at 25.5 µM in the test on SW-620 colon; 7.6 µM in the test with OVCAR-4 ovarian; 13.9 µM with CCRF-CEM leukemia; 26.4 µM in the test with HOP-62 NSCLC; 4.52 µM with SF-539 CNS; 21.4 µM in the test on NCI-H460 lung. Besides, the TGI in the test with ACHN renal stood at 22.9 µM; in the test on RPMI-8226 leukemia it was 32.4 µM; with EKVX NSCLC, 23.3 µM; in the test on K-562 leukemia it was 14.3 µM.
For the compound `CS/C(N)=N\NC(=O)CCC(=O)Nc1ccccc1C(F)(F)F`, the TGI in the test on SW-620 colon, with OVCAR-4 ovarian, in the test on CCRF-CEM leukemia, in the test on HOP-62 NSCLC, in the test with SF-539 CNS and in the test on NCI-H460 lung was over 100 µM in each case. Moreover, the TGI in the test on ACHN renal, with RPMI-8226 leukemia, in the test on EKVX NSCLC and with K-562 leukemia was over 100 µM throughout.
Take `Cc1ccn2c(c1)nc1nc3ccccc3nc12`: the TGI in the test on SW-620 colon, with OVCAR-4 ovarian, with CCRF-CEM leukemia, in the test on HOP-62 NSCLC, with SF-539 CNS and with NCI-H460 lung was over 100 µM in each case. The TGI with ACHN renal, in the test with RPMI-8226 leukemia, in the test on EKVX NSCLC and in the test with K-562 leukemia was over 100 µM each time.
`COc1cc2ncnc(Nc3ccc(C)c(O)c3)c2cc1OC`: the GI50 is over 25 µM with SW-620 colon; 9.91 µM in the test with OVCAR-4 ovarian; over 25 µM in the test with CCRF-CEM leukemia; over 25 µM in the test with HOP-62 NSCLC; 5.98 µM with SF-539 CNS; over 25 µM with NCI-H460 lung. Further, the GI50 was 0.799 µM in the test on ACHN renal, over 25 µM with RPMI-8226 leukemia, 6.3 µM in the test on EKVX NSCLC and 7.19 µM in the test on K-562 leukemia. The TGI in the test with SW-620 colon was over 25 µM; with OVCAR-4 ovarian it was over 25 µM; with CCRF-CEM leukemia it was over 25 µM; in the test with HOP-62 NSCLC it was over 25 µM; in the test on SF-539 CNS it was over 23 µM; in the test with NCI-H460 lung, over 25 µM. For the same compound, the TGI in the test with ACHN renal, with RPMI-8226 leukemia, with EKVX NSCLC and with K-562 leukemia was over 25 µM throughout.
With `Cc1cccc(N2CCN(C(=S)c3ccc4c(c3)OCO4)CC2)c1`, the GI50 in the test with SW-620 colon is 0.467 µM; in the test with OVCAR-4 ovarian, 67.7 µM; in the test on CCRF-CEM leukemia, 6.91 µM; with HOP-62 NSCLC it was 0.883 µM; in the test on SF-539 CNS, 1.5 µM; in the test on NCI-H460 lung it was 0.472 µM. For the same compound, the GI50 with ACHN renal was 3.88 µM; in the test with RPMI-8226 leukemia it was 8.01 µM; in the test with EKVX NSCLC it was 7.12 µM; in the test on K-562 leukemia it was 0.521 µM. In addition, the TGI in the test on SW-620 colon is over 100 µM; in the test on OVCAR-4 ovarian, over 100 µM; with CCRF-CEM leukemia, over 100 µM; with HOP-62 NSCLC, over 100 µM; in the test on SF-539 CNS, over 100 µM; in the test on NCI-H460 lung it was 37.5 µM. Further, the TGI with ACHN renal, in the test on RPMI-8226 leukemia, in the test on EKVX NSCLC and in the test on K-562 leukemia was over 100 µM throughout.

These data come from PubChem BioAssay (NCI).
